# Test results reported in patent publication US6503942B2, “Ethers of O-Desmethyl venlafaxine” (Wyeth, priority 1999, dated 2003).
compound,measurement,value
"CN(C)CC(c1ccc(OCOC(=O)C(C)(C)C)cc1)C1(O)CCCCC1.O=C(O)/C=C\C(=O)O (stereo not shown) [Example 5, {4-[2-(Dimethylamino)-1-(1-hydroxycyclohexyl)ethyl]phenoxy}methyl Pivalate Maleate Salt]",melting point,112 to 113 °C
